Experimental data taken from ChEMBL document CHEMBL3507680, “University of Dundee, Gates Library screen for HepG2 cell viability”.

Assay: Human HepG2 cell viability assay in 384 well format
Type: toxicity, cell-based
Set-up: dose 125 nL, time 70.5 hour; cytotoxicity at 70.5 h: concentration not given beside the values
Conditions: HepG2 cells, read-out: Inhibition

Row | Structure (SMILES) | cytotoxicity at 70.5 h
1 | COc1cc(NCCNC(=O)c2cc[nH]c2C)cc(OC)c1 | 3.9%
2 | CCC(C)(COc1ncccc1Cl)NCC(=O)Nc1ccc(Br)cn1 (stereo not drawn) | 38.6%
3 | NS(=O)(=O)CCNC(=O)c1cc2cccc(F)c2o1 | 18%
4 | NC(=O)c1ccc2c(c1)nc1n2CCN(Cc2ccco2)C1 | -8.52%
5 | CCc1c(C(=O)O)nnn1-c1cccc(C)c1C | -7.95%
6 | COc1cccc(NC(=O)Cc2c(C)nc3c(c2C)c(=O)[nH]n3C)c1 | -6.7%
7 | COc1ccccc1Oc1cncc(C2CCCN(C)C2)n1 (stereo not drawn) | -5.97%
8 | CCCN1CCN(Cc2cn(CCC(N)=O)c3ccccc23)CC1 | -3.42%
9 | CNC(=O)CN1CCOCC2(CCCN(Cc3cccnc3)C2)C1 (stereo not drawn) | 4.24%
10 | Cc1ccc(S(=O)(=O)N2C[C@@H]3CCN[C@@H]3C2)cc1 | -4.81%
11 | COC(=O)CCC(=O)N(Cc1ccc2cc[nH]c2c1)C1CC1 | -17.3%
12 | NC(=O)C(NC1CCN(Cc2ccc(F)cc2)CC1)c1ccccc1 (stereo not drawn) | -13.1%
13 | CC(C)N(C)S(=O)(=O)N1CCN(Cc2ccco2)CC1 | -5.12%
14 | CCOc1ncccc1C(=O)N(C)Cc1ncc(C)c(OC)c1C | -2.95%
15 | Cc1noc(CN(C)C(=O)CCn2cnc3ccccc32)n1 | -13.9%
16 | COc1ccccc1OCCCc1cccc(C#N)n1 | -1.85%
17 | CCN(CC)S(=O)(=O)NCCc1cc(C)ccc1OC | -15.7%
18 | Cc1ccc(CN2CCc3[nH]nc(C(=O)N4CCNC(=O)C4)c3C2)s1 | 3.82%
19 | CCNc1nc(-c2cccnc2)c(-c2ccnc(N3CCOCC3)n2)s1 | -10.7%
20 | COc1ccccc1CN(Cc1nc(Cc2ccccc2)no1)C1CC1 | -10.7%
21 | Cc1cc(C)c(CNC(=O)N(C)Cc2ccoc2)c(=O)[nH]1 | -2.92%
22 | O=C(c1cnc(C2CC2)s1)N1CCCC(n2cccn2)C1 (stereo not drawn) | -2.13%
23 | Cc1cc(CNC2(c3ccc(Cl)cc3)CC2)no1 | -2.02%

Row | Structure (SMILES) | cytotoxicity at 70.5 h
24 | COc1cc(CC(O)CC#N)c(OC)c2c1OCO2 (stereo not drawn) | -9.38%
25 | CNc1cncc(C2CCCN2S(=O)(=O)c2cccc(F)c2)n1 (stereo not drawn) | -2.79%
26 | Cc1nc(CC(=O)N2CCc3nc(-c4cnccn4)nc(O)c3C2)cs1 | 12.3%
27 | COc1cccc2c1OCC(C(=O)NCc1nc3c(s1)CCCC3)C2 (stereo not drawn) | 21.6%
28 | CCc1cnc(N)nc1NCCN1CCCCC1 | 23%
29 | CN(C)C1(C(=O)NC2CCC(Oc3ccccc3C#N)CC2)CCC1 (stereo not drawn) | -4.33%
30 | Cn1cc(CN2C[C@@H]3COC[C@]3(C(=O)NCc3cccs3)C2)cn1 | -6.51%
31 | CCN1CCC2(CCC1=O)CN(C1CCOCC1)CCN2C (stereo not drawn) | -6.68%
32 | CC(=O)NCc1ccc(S(=O)(=O)NC(=O)c2ccc3c(c2)CCO3)s1 | -2.05%
33 | COc1cccc2c1N(Cc1noc(C3CC3)n1)CCC2 | 39.7%
34 | O=C(Nc1cn[nH]c1)c1ccncc1 | 4.52%
35 | Cc1nnc(NCc2ccc(Br)cc2)o1 | -4.41%
36 | CC(=O)NC1CCCN(Cc2ccn(C)c(=O)c2)C1 (stereo not drawn) | -9.51%
37 | O=C1CO[C@@H]2CN(S(=O)(=O)c3ccccc3)C[C@H]2N1CC1CC1 | -13.1%
38 | COc1ccccc1C(=O)Nc1ccc(OC2CCN(C)CC2)cc1 | -6.64%
39 | COCCCc1nc(-c2ccc(S(=O)(=O)N3CCCC3)cc2)cs1 | -4.93%
40 | CN1CCC(CN(C)C(=O)c2cc(C3CCCN3C)ccn2)CC1 (stereo not drawn) | -6.76%
41 | Cc1cnn(CC2CN(CC(=O)N(C)Cc3ccsc3)CCO2)c1 (stereo not drawn) | 5.76%
42 | CN(C)S(=O)(=O)N1CCC(c2n[nH]cc2-c2ccnc(N)c2)C1 (stereo not drawn) | 5.75%
43 | Cc1nnc(C(C)NCC2(c3ccc(F)cc3)CCCCC2)o1 (stereo not drawn) | -5.27%
44 | CN(C)CC1CSCCCN1C(=O)c1ccc(=O)[nH]c1 (stereo not drawn) | 10.8%
45 | Cc1ccccc1-c1cncc(C2CCN(CCO)CC2)n1 | -8.45%
46 | CC[C@@H](Cn1ncc2ccccc2c1=O)NC(=O)c1ccco1 | -8.28%

Row | Structure (SMILES) | cytotoxicity at 70.5 h
47 | COc1ccccc1CNc1ccc2nncn2n1 | -11.2%
48 | Cn1cc(S(=O)(=O)NC(=O)C2(c3cccc(Cl)c3)CC2)cn1 | -10.1%
49 | O=C(O)c1c[nH]c2cc(NS(=O)(=O)c3cccc(F)c3F)ccc12 | -9.73%
50 | Cc1ccc2c(n1)N(CCN(C)C)CCN(Cc1c(C)noc1C)C2 | -2.08%
51 | CSc1cc2c(cc1NC(=O)NCC(C)(C)C(N)=O)OCCO2 | -1.42%
52 | CNc1nc(CNC(=O)Nc2cccc(Cl)c2Cl)cs1 | -1.34%
53 | Cc1nn(C)c(N(C)C)c1CNCc1cccnc1-n1cncn1 | -5.08%
54 | COCCCNC(=O)c1cc(-c2cnc(N3CCOCC3)nc2)cn1C | -6.15%
55 | CCNc1ncc(C(=O)NCc2csc(C)n2)cn1 | 1.23%
56 | CC(=O)N1CCC(c2ccnc(Nc3cncnc3)n2)C1 (stereo not drawn) | -32.6%
57 | CC(C)Cc1cc(NC(=O)c2ccc[nH]2)n(C)n1 | -11.1%
58 | CC(C)c1nc(CN2CCCN(Cc3nnc(C4CC4)o3)CC2)no1 | 1.11%
59 | N[C@@H]1c2ccccc2C2(CCN(c3ccc(C(F)(F)F)cn3)CC2)[C@H]1O | -15.9%
60 | Brc1cccc(C2(CNCc3cc[nH]c3)CCOCC2)c1 | 17.6%
61 | O=C1[C@@H]2CCN(Cc3ccccn3)C[C@@H]2OCCN1c1ccccc1 | -4.44%
62 | CN(Cc1cccnc1)[C@@H]1CN(Cc2cnn(C)c2)[C@@H]2CCCO[C@H]12 | -6.78%
63 | O=C1NC(c2ccccc2)=N[C@@]12CC[C@@H]1CN(CC3CC3)C[C@@H]12 | -10.6%
64 | CN1CCN(CC2CC2)C(=O)c2cnc(N3CCOCC3)nc21 | -3.35%
65 | CC[C@H](C)[C@@H](CO)NC(C)Cc1ccc(C)cc1 (stereo partly drawn) | -2%
66 | CN1CCNCC(Cc2cnc3ccccc3c2)C1 (stereo not drawn) | -3.02%
67 | Cn1cc(C(=O)N(Cc2ccco2)Cc2cccs2)ccc1=O | -8.8%
68 | COC1CN(C(=O)OCC(C)C)CCC(=O)N(C)c2ccccc21 (stereo not drawn) | -4.55%
69 | COc1ccc(CN(C)C(=O)CCC(=O)c2cccs2)c(OC)c1OC | -3.38%

Row | Structure (SMILES) | cytotoxicity at 70.5 h
70 | O=C(N1CCCC1)C1(Cc2ccc(-c3cccs3)cc2)CCNC1 (stereo not drawn) | 2.43%
71 | Cc1cccc(-c2noc(CNC(C)Cn3cc(C)cn3)n2)c1 (stereo not drawn) | -0.846%
72 | COc1cccc([S+]([O-])CC(=O)NCc2cc(F)cc(F)c2)c1 (stereo not drawn) | -1.69%
73 | CCCc1cc(C(=O)N[C@@H](CO)[C@@H](O)c2ccccc2)n(C)n1 | 0.909%
74 | O=S(=O)(Cc1ccccc1)N1CCCn2cnc(CN3CCCC3)c2C1 | 0.898%
75 | CN1C[C@]2(CC[C@@H](C(=O)N3CCOCC3)CC2)Oc2ccccc2C1=O | -5.13%
76 | CCN1CCN(c2ccc(F)cc2C(C)NCc2ccncc2)CC1 (stereo not drawn) | -1.51%
77 | CC[C@@H](C)[C@H](NC(=O)Cn1ccc2c(Cl)cccc21)C(=O)O | -13.9%
78 | COCCOc1ccc(-c2noc([C@@H]3CCCN3C3CCC3)n2)cn1 | -3.43%
79 | COc1cccc(S(=O)(=O)CCN2CCn3c(C)nnc3C2)c1 | 1.41%
80 | Cc1nn(C(C)C)c(C)c1S(=O)(=O)Nc1ccc(C(=O)O)c(Cl)c1 | -5.52%
81 | Cc1ocnc1C(=O)N1CCC(c2nccn2Cc2ccncc2)CC1 | -6.78%
82 | Cc1c(C2SCC(=O)Nc3c2c(O)nn3C2CCCC2)cnn1C (stereo not drawn) | -22.8%
83 | O=C(COc1cccnc1)NCc1nncn1C1CCCCC1 | -5.77%
84 | COc1cc(F)ccc1N(C)Cc1ccccn1 | -1.59%
85 | COc1cccc(S(=O)(=O)N2CCC(O)(CN(C)C)C2)c1 (stereo not drawn) | -19.7%
86 | Brc1ccc(CN2CCC(NCc3ncc[nH]3)CC2)cc1 | -0.173%
87 | Nc1ncccc1CN1CCCn2nc(CCC(=O)NC3CC3)cc2C1 | -2.41%
88 | NCCc1nc(N(Cc2cncs2)C2CC2)c2ccccc2n1 | 24.1%
89 | CC(=O)N1CCN(C(=O)NCCCN(C(C)C)S(C)(=O)=O)CC1 | -8.44%
90 | O=C(CCN1CCc2ccccc21)N1CC(C(=O)N2CCOCC2)C1 | -5.25%
91 | COc1ccc(C2=CCN(C(=O)C3CC(=O)N(C4CC4)C3)CC2)cc1 (stereo not drawn) | -12.9%
92 | Cn1ccnc1CN1CCCCC1Cn1cccn1 (stereo not drawn) | 11%

Row | Structure (SMILES) | cytotoxicity at 70.5 h
93 | Cc1nccc(NCc2cncc3c2CCN(CC2CC2)C3)n1 | 9.03%
94 | CN(C)C(=O)N1CCN(Cc2nc3ccccc3[nH]2)[C@H]2CS(=O)(=O)C[C@H]21 | 25%
95 | Cc1ncc(CC(=O)N2CCCC(COc3ccc(F)cc3)C2)c(=O)[nH]1 (stereo not drawn) | 2.89%
96 | CCOCCCn1c(NC(=O)c2ccc(C)nc2)nc2ccccc21 | -5.03%
97 | CC(=O)N1CCCC(c2ccc(CO)c(-c3c(C)noc3C)n2)C1 (stereo not drawn) | 27.2%
98 | CC(=O)Nc1ncc(S(=O)(=O)Nc2cccc(C)c2)s1 | -12.5%
99 | COc1ccccc1C(O)CNC(=O)NCc1cccnc1OC (stereo not drawn) | 6.04%
100 | CC(=O)N1CCCC1c1cc(Nc2nnc(C)s2)nc(C)n1 (stereo not drawn) | 17.2%
101 | COc1ccc(NC(=O)Cn2c(=O)nc(N)c3cc(C)sc32)cc1 | -13.1%
102 | COc1cccc(-c2cccc(N3CCC(N[C@@H]4CCOC4)CC3)c2)c1 | 2.44%
103 | CN(C)c1ccc(CCCNC(=O)Nc2ccc(C#N)cc2)cc1 | 1.4%
104 | Cc1nc(C(=O)N2CCCC(n3cncn3)C2)cs1 (stereo not drawn) | -3.83%
105 | O=C(c1ccsc1)N1CCCC(c2cc(C(F)(F)F)[nH]n2)C1 (stereo not drawn) | 11.1%
106 | CC1CCN(S(=O)(=O)NCC2CCOc3ccccc3C2)CC1 (stereo not drawn) | -7.61%
107 | Cc1csc(CCNC(=O)N2CCC(C(N)=O)CC2)n1 | -16.7%
108 | CCC(=O)N1CCC(c2nc(N3CCCC3)ncc2S(C)(=O)=O)CC1 | 17.6%
109 | CCc1c(C(=O)N2CC(C)OC(C)(C)C2)cnn1-c1ccccn1 (stereo not drawn) | -4.53%
110 | CCc1cnc(CN(C)C2CCN(CC(=O)Nc3cc(C)on3)C2)o1 (stereo not drawn) | 11.1%
111 | CN1CCN(CC2CC2)C(=O)c2cnc(N3CC[C@@H](O)C3)nc21 | 27.1%
112 | c1ccc(OCC2CC3(CCN(Cc4ccncc4)CC3)CO2)nc1 (stereo not drawn) | -18.6%
113 | CC(C(=O)NCCCN1CCN(c2ccccc2)CC1)n1cncn1 (stereo not drawn) | -15.9%
